From patent EP2667887B1, “PHARMACEUTICAL COMPOSITION COMPRISING THE PEPTIDE GLU-ASP-GLY AND USE FOR TREATING HELICOBACTER PYLORI INDUCED GASTRODUODENAL DISEASES” («Garmonia», Ltd., priority 2011, dated 2012)

Experiments:
[1] = tested on: human gastric epithelium cells SGC7901; assay: Effect on Helicobacter pylori-induced mitochondrial mechanisms of apoptosis in gastric epitheliocytes (mito-GFP confocal microscopy); assay type: cell-based; details: peptide 10 µM 30 minutes before Helicobacter pylori (strain Cag J117), 7 hours
Protocol: To evaluate the biological activity and effects of peptide H-Glu-Asp-Gly-OH on mitochondrial mechanisms of apoptosis in gastric epitheliocytes, induced by Helicobacter pylori germs, human gastric epithelium cells SGC7901 were studied. The cells were cultivated at 37°C in a damp incubation medium containing 50 mL/L CO2 in DMEM (Dulbecco's Modified Eagle's Medium, ICN Biomedicals) and 10% calf embryonic serum. A preliminary separation of cells for passaging was carried out in the ratio of 1:3-1:5 using a mixture of 0.125% trypsin, 0.02M EDTA (ethylenediaminetetraacetic acid), 0.02% glucose dissolved in a phosphate buffer. The cells were placed on a 24-well plate in the amount of 10^6 cells per well. The cells were passaged in a cultivation medium for 5 days and then taken for study.
On the 5th day after the beginning of cell passaging the peptide H-Glu-Asp-Gly-OH in the dose of 10 µM was administered in the cultivation medium, and in 30 minutes of incubation the cells were taken for study. Klacid antibiotic (clarithromycin, Abbott) in the dose of 500 ng/mL was administered to the cultures in the same conditions as positive control. […]
(§1) The status of isolated mitochondria was evaluated using immunofluorescent confocal laser microscopy. […]
Confocal microscopy of mitochondria with optical density evaluation was performed in an inverted confocal microscope Olympus Fluoview CM FV300-IX70 using an apochromatic lens 606 UPlan (Olympus). A 488 nm excitation wave of argon laser was used in each chamber to specify mito-GFP fluorescence that verifies the structure of mitochondria.

[2] = tested on: mice embryonic fibroblasts (MEF+/+, knockout mice line LMNA); assay: Effect on Helicobacter pylori-induced mitochondrial damage in mouse embryonic fibroblasts (mito-GFP confocal microscopy); assay type: cell-based; details: peptide 10 µM added 30 minutes before Helicobacter pylori (strain Cag J117), 7 hours incubation; compared to control
Protocol: A study of the effect of a pharmaceutical composition comprising the peptide H-Glu-Asp-Gly-OH as an active substance on molecular and cellular mechanisms of apoptosis was carried out on a wild type of mice embryonic fibroblasts (MEF+/+, knockout mice line LMNA). Cells were cultivated at 37°C in a damp incubation medium containing 5% CO2 in DMEM (Dulbecco's Modified Eagle's Medium, ICN Biomedicals) and 10% calf embryonic serum. Preliminary sorting of cells for passaging in a 1:3-1:5 ratio was performed using a mixture of 0.125% trypsin, 0.02M EDTA (ethylenediaminetetraacetic acid), 0.02% glucose dissolved in a phosphate buffer. Cells were passaged in a culturing medium for 5 days and then taken for the study.
On the 5th day after the beginning of passaging of the cells peptide H-Glu-Asp-Gly-OH was added in the culturing medium in the dose of 10 µM, and in 30 minutes the cells were taken for study. […]
as §1
Confocal microscopy of mitochondria with optical density evaluation was carried out in an inverted confocal microscope Olympus Fluoview CM FV300-IX70 using an apochromatic lens 606 UPlan (Olympus). A 488 nm excitation wave of argon laser was used in each chamber to specify mito-GFP fluorescence that verifies the structure of mitochondria.

[3] = Acute toxicity study, single administration; assay type: in vivo, white mongrel male mice; details: mice, single intramuscular administration, 1-5 mg/kg; dose exceeds the therapeutic dose by more than 5000 times
Protocol: General toxicity of peptide H-Glu-Asp-Gly-OH was studied in accordance with the requirements of "Manual for Experimental (Pre-Clinical) Study of New Pharmacological Substances" (2000): acute toxicity in case of a single administration of the preparation, as well as subacute and chronic toxicity in case of a long-term administration of the peptide.
Acute toxicity study was carried out on 66 white mongrel male mice with body weight 20-22 g. The animals were randomly subdivided into 6 equal groups. The preparation was administered to the animals once, intramuscularly in the doses of 1, 2, 3, 4, 5 mg/kg in 0,25 ml of sterile 0,9% NaCl solution. Control animals were treated with 0,9% NaCl solution in the same volume.

glutamyl-aspartyl-glycine [H-Glu-Asp-Gly-OH]
mitochondrial GFP expression by optical density ([1]; control 2.57±0.23, H. pylori alone 0.35±0.05): 2.48±0.17 conv. units
mitochondrial GFP expression by expression area ([1]; control 3.42±0.19, H. pylori alone 0.63±0.03): 3.84±0.20%
luminescence of mitochondrial GFP in terms of optical density values [2]: exceeded the control indices
acute toxicity [3]: does not cause toxic reactions
